Measured values published in patent publication US9382254B2, “Compounds and pharmaceutical compositions thereof for the treatment of cystic fibrosis” (Galapagos NV, priority 2013, dated 2016).

Legend:
Type in all cases: cell-based
[1] = target: T1, CFTR ΔF508 mutant (Homo sapiens, UniProt P13569, DEL508-508); experiment: YFP-halide influx assay for the CFTR-ΔF508 mutation (384 well, FDSS/μCell); conditions: CFBE41o- cells, CFTR-ΔF508, 1×D-PBS, fluorescence after 36 seconds
T1 construct: expressed in transfected cells; host or cells: CFBE41o- (adenoviral transduction)
How it was run: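 Potentiator read-out as 1−F/F0, F taken 36 s after iodide addition, EC50 fitted against compound concentration. Cells: CFBE41o- expressing ΔF508 CFTR plus halide-sensitive YFP via adenovirus, rescued by 27 °C for 24 h or 24 h modulator at 37 °C.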

[2] = target: T2, CFTR G551D mutant (Homo sapiens, UniProt P13569, G551D); experiment: YFP-halide influx assay for the CFTR-G551D mutation; conditions: HEK293 cells, forskolin 10.67 μM
T2 construct: expressed in transfected cells; host or cells: HEK293 (reverse transfection with plasmid)
How it was run: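 Channel opening potentiation measured as 1−F/F0, where F is YFP fluorescence 7 s after iodide injection and F0 before; EC50 taken from concentration plot. Cells: HEK293 transiently expressing CFTR G551D plus halide-sensitive YFP (H148Q, I152L, F47L), 24 h at 37 °C, 5% CO2.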

[3] = target: T1, CFTR ΔF508 mutant; experiment: YFP-halide influx assay for the CFTR-ΔF508 mutation, PBS buffer (96 well); conditions: CFBE41o- cells, forskolin 10.67 μM
How it was run: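 CFBE41o- cells were adenovirally transduced with CFTR ΔF508 and YFP H148Q/I152L, then incubated 24 h at 27 °C or with a CFTR modulator at 37 °C. I⁻-induced fluorescence quenching was recorded over 7 s after injection; response expressed as 1−F/F0, with EC50 from concentration plots.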

[4] = target: T1, CFTR ΔF508 mutant; experiment: YFP-halide influx assay for the CFTR-ΔF508 mutation, gluconate buffer; conditions: CFBE41o- cells, forskolin 10.67 μM
How it was run: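 Channel opening is read as the fall in YFP fluorescence over 7 s following iodide injection, expressed as 1-F/F0 and plotted versus compound concentration to derive EC50. Cells used were CFBE41o- expressing adenoviral ΔF508 CFTR and halide-sensitive YFP, rescued by 24 h at 27 °C or 24 h modulator treatment at 37 °C.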

T2 sequence (P13569 whole entry G551D): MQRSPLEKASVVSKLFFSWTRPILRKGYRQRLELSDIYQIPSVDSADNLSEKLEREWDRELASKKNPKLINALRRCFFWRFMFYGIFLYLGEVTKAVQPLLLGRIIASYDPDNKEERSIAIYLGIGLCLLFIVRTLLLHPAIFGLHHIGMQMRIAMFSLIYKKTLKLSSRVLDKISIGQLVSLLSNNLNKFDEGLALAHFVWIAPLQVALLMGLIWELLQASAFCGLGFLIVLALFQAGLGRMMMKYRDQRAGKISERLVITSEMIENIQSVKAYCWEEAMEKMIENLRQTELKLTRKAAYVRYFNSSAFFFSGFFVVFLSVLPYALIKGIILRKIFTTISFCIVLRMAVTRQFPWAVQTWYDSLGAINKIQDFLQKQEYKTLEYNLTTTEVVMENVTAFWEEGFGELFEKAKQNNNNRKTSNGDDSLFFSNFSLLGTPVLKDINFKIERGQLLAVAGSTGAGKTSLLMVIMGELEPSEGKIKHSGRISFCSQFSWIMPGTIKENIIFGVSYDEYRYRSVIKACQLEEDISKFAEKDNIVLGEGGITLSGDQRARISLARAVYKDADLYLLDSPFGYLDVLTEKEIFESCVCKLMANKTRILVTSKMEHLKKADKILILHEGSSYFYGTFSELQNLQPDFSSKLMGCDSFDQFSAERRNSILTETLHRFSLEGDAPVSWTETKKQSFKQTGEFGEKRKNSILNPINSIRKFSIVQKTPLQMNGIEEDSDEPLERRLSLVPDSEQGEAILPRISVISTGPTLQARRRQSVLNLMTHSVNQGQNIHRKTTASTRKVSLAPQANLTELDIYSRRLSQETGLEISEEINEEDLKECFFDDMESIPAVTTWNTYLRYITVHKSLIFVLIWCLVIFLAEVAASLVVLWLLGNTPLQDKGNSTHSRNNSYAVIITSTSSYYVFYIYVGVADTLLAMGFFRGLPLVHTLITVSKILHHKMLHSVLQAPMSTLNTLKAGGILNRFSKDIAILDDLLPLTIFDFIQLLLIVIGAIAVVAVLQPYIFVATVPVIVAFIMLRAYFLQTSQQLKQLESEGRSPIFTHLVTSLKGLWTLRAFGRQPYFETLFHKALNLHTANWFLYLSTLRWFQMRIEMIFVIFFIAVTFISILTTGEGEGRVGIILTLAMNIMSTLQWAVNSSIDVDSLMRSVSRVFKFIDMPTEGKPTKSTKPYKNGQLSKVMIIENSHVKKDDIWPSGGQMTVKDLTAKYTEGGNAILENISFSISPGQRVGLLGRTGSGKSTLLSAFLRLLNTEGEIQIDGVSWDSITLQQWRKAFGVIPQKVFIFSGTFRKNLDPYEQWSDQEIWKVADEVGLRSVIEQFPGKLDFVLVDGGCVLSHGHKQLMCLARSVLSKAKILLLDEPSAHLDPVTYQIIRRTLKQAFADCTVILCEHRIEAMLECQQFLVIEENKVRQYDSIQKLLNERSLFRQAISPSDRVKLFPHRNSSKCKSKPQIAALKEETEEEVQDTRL
T1 sequence (P13569 with tags, fused parts or gaps DEL508-508): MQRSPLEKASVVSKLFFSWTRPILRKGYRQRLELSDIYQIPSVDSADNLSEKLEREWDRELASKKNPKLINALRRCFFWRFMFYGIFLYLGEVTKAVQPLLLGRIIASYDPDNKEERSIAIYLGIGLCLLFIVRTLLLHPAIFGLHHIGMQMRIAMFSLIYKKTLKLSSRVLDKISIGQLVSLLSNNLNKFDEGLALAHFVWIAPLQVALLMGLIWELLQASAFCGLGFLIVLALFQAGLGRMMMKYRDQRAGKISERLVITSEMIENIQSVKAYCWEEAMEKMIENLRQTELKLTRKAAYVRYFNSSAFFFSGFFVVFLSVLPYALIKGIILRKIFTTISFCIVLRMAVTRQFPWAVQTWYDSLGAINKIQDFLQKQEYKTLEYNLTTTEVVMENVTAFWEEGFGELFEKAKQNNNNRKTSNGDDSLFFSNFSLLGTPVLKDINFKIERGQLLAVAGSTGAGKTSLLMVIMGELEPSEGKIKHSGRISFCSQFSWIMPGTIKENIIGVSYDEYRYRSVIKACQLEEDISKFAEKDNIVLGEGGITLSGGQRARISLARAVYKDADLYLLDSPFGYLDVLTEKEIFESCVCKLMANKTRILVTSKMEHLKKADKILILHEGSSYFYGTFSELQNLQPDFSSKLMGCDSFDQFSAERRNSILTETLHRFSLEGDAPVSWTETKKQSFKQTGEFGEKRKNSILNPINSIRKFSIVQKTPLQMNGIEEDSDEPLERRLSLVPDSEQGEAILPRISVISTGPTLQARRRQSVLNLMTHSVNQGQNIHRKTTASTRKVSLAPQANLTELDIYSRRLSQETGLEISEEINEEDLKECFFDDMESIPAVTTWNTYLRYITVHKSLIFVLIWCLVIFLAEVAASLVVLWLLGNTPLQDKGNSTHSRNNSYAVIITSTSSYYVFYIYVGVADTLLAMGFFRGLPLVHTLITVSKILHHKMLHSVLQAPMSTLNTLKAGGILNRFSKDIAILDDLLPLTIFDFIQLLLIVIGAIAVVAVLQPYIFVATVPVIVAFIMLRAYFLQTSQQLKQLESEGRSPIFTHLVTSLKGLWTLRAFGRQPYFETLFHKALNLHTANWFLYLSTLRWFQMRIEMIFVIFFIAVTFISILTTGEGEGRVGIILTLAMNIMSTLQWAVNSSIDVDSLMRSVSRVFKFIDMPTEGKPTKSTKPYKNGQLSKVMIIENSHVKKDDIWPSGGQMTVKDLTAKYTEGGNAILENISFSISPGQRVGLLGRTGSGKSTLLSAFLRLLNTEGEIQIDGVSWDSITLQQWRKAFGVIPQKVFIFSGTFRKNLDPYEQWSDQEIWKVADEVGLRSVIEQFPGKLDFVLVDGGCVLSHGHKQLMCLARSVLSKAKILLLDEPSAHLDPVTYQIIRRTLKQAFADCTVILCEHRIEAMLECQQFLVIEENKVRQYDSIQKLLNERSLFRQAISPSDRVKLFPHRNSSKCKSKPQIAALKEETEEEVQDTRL

Structure (SMILES) | EC50 [1] | EC50 [2] | EC50 [3] | EC50 [4]
NC(=O)c1cc(S(=O)(=O)N2CCOCC2)sc1NC(=O)c1ccccc1C(F)(F)F [Compound 78, 5-(morpholinosulfonyl)-2-(2-(trifluoromethyl)benzamido)thiophene-3-carboxamide] | 146 nM | 3070 nM | 220 nM | 401 nM
NC(=O)c1cc(S(=O)(=O)N2CC=C(C(F)(F)F)CC2)sc1NC(=O)c1ccccc1F [Compound 158, 2-(2-fluorobenzamido)-5-(4-(trifluoromethyl)-5,6-dihydropyridin-1(2H)-ylsulfonyl)thiophene-3-carboxamide] | 79.5 nM | 1870 nM | 35.5 nM | 50.5 nM
COc1ccc(CN(C)S(=O)(=O)c2cc(C(N)=O)c(NC(=O)c3cc[nH]n3)s2)cc1F [Compound 160, N-(3-carbamoyl-5-(N-(3-fluoro-4-methoxybenzyl)-N-methylsulfamoyl)thiophen-2-yl)-1H-pyrazole-3-carboxamide] | 210 nM | 272 nM | 38.7 nM | 48.4 nM
COc1ccc(CN(C)S(=O)(=O)c2cc(C(N)=O)c(NC(=O)c3cc[nH]n3)s2)cc1 [Compound 171, N-(3-carbamoyl-5-(N-(4-methoxybenzyl)-N-methylsulfamoyl)thiophen-2-yl)-1H-pyrazole-3-carboxamide] | 81.4 nM | 756 nM | 37.5 nM | 104 nM
CN(Cc1ccc(C(F)(F)F)cc1)S(=O)(=O)c1cc(C(N)=O)c(NC(=O)c2cc[nH]n2)s1 [Compound 175, N-(3-carbamoyl-5-(N-methyl-N-(4-(trifluoromethyl)benzyl)sulfamoyl)thiophen-2-yl)-1H-pyrazole-3-carboxamide] | 96.8 nM | 527 nM | 61.7 nM | 106 nM
CC1(C)CN(S(=O)(=O)c2cc(C(N)=O)c(NC(=O)c3ccccc3F)s2)C1 [Compound 183, 5-(3,3-dimethylazetidin-1-ylsulfonyl)-2-(2-fluorobenzamido)thiophene-3-carboxamide] | 12.7 nM | 526 nM | 25.7 nM | 153 nM
CN(Cc1ccncc1)S(=O)(=O)c1cc(C(N)=O)c(NC(=O)c2cc[nH]n2)s1 [Compound 207, N-(3-carbamoyl-5-(N-methyl-N-(pyridin-4-ylmethyl)sulfamoyl)thiophen-2-yl)-1H-pyrazole-3-carboxamide] | 48.1 nM | 442 nM | 125 nM | 317 nM
NC(=O)c1cc(S(=O)(=O)N2CCC(F)(F)CC2)sc1NC(=O)C1(O)CCC1 [Compound 213, 5-(4,4-difluoropiperidin-1-ylsulfonyl)-2-(1-hydroxycyclobutanecarboxamido) thiophene-3-carboxamide] | 52.8 nM | 541 nM | 118 nM | 87.3 nM
NC(=O)c1cc(S(=O)(=O)N2CCC(F)(F)CC2)sc1NC(=O)c1c(O)cc(F)cc1F [Compound 214, 2-(2,4-difluoro-6-hydroxybenzamido)-5-(4,4-difluoropiperidin-1-ylsulfonyl) thiophene-3-carboxamide] | 25.8 nM |  | 37.2 nM | 117 nM
CN(CC1CC1)S(=O)(=O)c1cc(C(N)=O)c(NC(=O)c2ccccc2F)s1 [Compound 218, 5-(N-(cyclopropylmethyl)-N-methylsulfamoyl)-2-(2-fluorobenzamido) thiophene-3-carboxamide] |  | 410 nM | 72.7 nM | 196 nM
Cc1cc(F)ccc1S(=O)(=O)c1cc(C(N)=O)c(NC(=O)C2(O)CC2)s1 [Compound 222, 5-(4-fluoro-2-methylphenylsulfonyl)-2-(1-hydroxycyclopropanecarboxamido) thiophene-3-carboxamide] | 33.2 nM | 583 nM | 26.1 nM | 22.9 nM
NC(=O)c1cc(S(=O)(=O)c2ccc(F)cc2)sc1NC(=O)c1ccccc1O [Compound 223, 5-(4-fluorophenylsulfonyl)-2-(2-hydroxybenzamido) thiophene-3-carboxamide] | 62.1 nM | 327 nM | 31.8 nM | 37.9 nM
NC(=O)c1cc(S(=O)(=O)c2ccc(F)cc2)sc1NC(=O)C1(O)CC1 [Compound 224, 5-(4-fluorophenylsulfonyl)-2-(1-hydroxycyclopropanecarboxamido) thiophene-3-carboxamide] | 35 nM | 511 nM | 54.1 nM | 103 nM
NC(=O)c1cc(S(=O)(=O)c2ccc(F)cc2)sc1NC(=O)C1(O)CCC1 [Compound 226, 5-(4-fluorophenylsulfonyl)-2-(1-hydroxycyclobutanecarboxamido) thiophene-3-carboxamide] | 33.8 nM | 540 nM | 36.9 nM | 42.2 nM

Next, values leading:

EC50 [1] | EC50 [2] | EC50 [3] | EC50 [4] | Structure (SMILES)
68.4 nM | 5680 nM | 114 nM | 293 nM | CC(C)(C)C(=O)Nc1sc(S(=O)(=O)c2cccc(F)c2)cc1C(N)=O [Compound 122, 5-(3-fluorophenylsulfonyl)-2-pivalamidothiophene-3-carboxamide]
84.9 nM | 332 nM | 31.2 nM | 22.2 nM | CC(C)c1ccccc1S(=O)(=O)c1cc(C(N)=O)c(NC(=O)c2ccccc2F)s1 [Compound 179, 2-(2-fluorobenzamido)-5-(2-isopropylphenylsulfonyl) thiophene-3-carboxamide]
20.7 nM | 298 nM | 33.4 nM | 60.6 nM | CN(CC(C)(C)C)S(=O)(=O)c1cc(C(N)=O)c(NC(=O)c2cc[nH]n2)s1 [Compound 192, N-(3-carbamoyl-5-(N-methyl-N-neopentylsulfamoyl)thiophen-2-yl)-1H-pyrazole-3-carboxamide]
20.7 nM | 185 nM | 38.3 nM | 154 nM | CN(CCC(F)(F)F)S(=O)(=O)c1cc(C(N)=O)c(NC(=O)c2cc[nH]n2)s1 [Compound 194, N-(3-carbamoyl-5-(N-methyl-N-(3,3,3-trifluoropropyl)sulfamoyl)thiophen-2-yl)-1H-pyrazole-3-carboxamide]
6.9 nM | 134 nM | 31.4 nM | 72.6 nM | CC1(C)CN(S(=O)(=O)c2cc(C(N)=O)c(NC(=O)c3cc[nH]n3)s2)C1 [Compound 206, N-(3-carbamoyl-5-(3,3-dimethylazetidin-1-ylsulfonyl)thiophen-2-yl)-1H-pyrazole-3-carboxamide]
6 nM | 314 nM | 34.5 nM | 73.9 nM | CN(C1CC1)S(=O)(=O)c1cc(C(N)=O)c(NC(=O)c2cc[nH]n2)s1 [Compound 209, N-(3-carbamoyl-5-(N-cyclopropyl-N-methylsulfamoyl)thiophen-2-yl)-1H-pyrazole-3-carboxamide]
 |  | 164 nM | 195 nM | CC(C)(CO)C(=O)Nc1sc(S(=O)(=O)N2CCC(F)(F)CC2)cc1C(N)=O [Compound 217, 5-(4,4-difluoropiperidin-1-ylsulfonyl)-2-(3-hydroxy-2,2-dimethylpropanamido) thiophene-3-carboxamide]
 |  | > 1000 nM | > 1000 nM | CC(C)(O)C(=O)Nc1sc(S(C)(=O)=O)cc1C(N)=O [Compound 219, 2-(2-hydroxy-2-methylpropanamido)-5-(methylsulfonyl) thiophene-3-carboxamide]
 |  | 2310 nM | > 1000 nM | CC(C)S(=O)(=O)c1cc(C(N)=O)c(NC(=O)C(C)(C)O)s1 [Compound 220, 2-(2-hydroxy-2-methylpropanamido)-5-(isopropylsulfonyl) thiophene-3-carboxamide]
26.1 nM | 1160 nM | 49.4 nM | 110 nM | CC(C)(O)C(=O)Nc1sc(S(=O)(=O)c2ccc(F)cc2)cc1C(N)=O [Compound 221, 5-(4-fluorophenylsulfonyl)-2-(2-hydroxy-2-methylpropanamido) thiophene-3-carboxamide]
